# Reference: publication PMC6273433, “Design, Synthesis and Cytotoxicity of Novel Dihydroartemisinin-Coumarin Hybrids via Click Chemistry” (Molecules, 2016)
# pIC50: −log10 of the molar value. Read-outs that look alike come from different tables or passages of the source.
# Legend:
# Type in all cases: cell-based
# [1] = tested on: HT-29 (human colon carcinoma cell line, overexpresses high amounts of CA IX); assay: MTT cytotoxicity assay, HT-29 under anoxia or normoxia; details: for HT-29 Value = IC50(normoxia)/IC50(anoxia): HT-29, activity promotion under anoxia; for pIC50: Homo sapiens
# Protocol: (§1) We focused our attention on the cytotoxicity of the four series of newly-synthesized compounds (10a–e, 11a–e, 12a–e, and 13a–e) under normoxic or anoxic conditions.
# (§2) The data was calculated by the Logit method and presented as IC50 values in Table 1.
# (§3) All of the newly-synthesized compounds were screened for in vitro cytotoxicity by MTT assay. The exponentially-growing MRC-5, HCT-116, MDA-MB-231, and HT-29 cells were allowed to grow until 80% confluency, the culture medium was discarded, digested with trypsin, separated centrifugally, then fresh culture medium was added and blown gently into single-cell suspension. Then, the cell suspension was seeded into each well of 96-well microculture plates at a concentration of 1.5 × 10^3–3 × 10^3 cells/well.
# (§4) The cells were incubated with 50 μL of 2 mg/mL MTT solution for 4 h in a humidified incubator. The supernatant was discarded, and the media were then replaced with 200 μL of dimethyl sulfoxide to dissolve the purple colored formazan crystals formed in the wells, and their absorbances were measured at 492 nm with a microplate reader (Synergy-HT, BioTek Instruments, Winooski, VT, USA); 200 μL DMSO was set as the blank control.
# (§5) The anoxia condition was achieved by placing cells in a sealed hypoxia incubator chamber (Catalog Number 27310, Stemcell Technologies, Inc., Vancouver, BC, Canada) filled with 5% CO2 and 95% N2.
# [2] = tested on: HCT-116 (human colorectal cancer cell line); assay: MTT cytotoxicity assay, HCT-116 under anoxia or normoxia; details: for HCT-116 Value = IC50(normoxia)/IC50(anoxia): HCT-116, activity promotion under anoxia, >100 set as 100; for pIC50: Homo sapiens
# Protocol: as §1, §2, §3, §4, §5
# [3] = tested on: MRC-5 (human fetal lung fibroblast cells, normal lung cell); assay: MTT cytotoxicity assay, MRC-5 normal cells; details: MRC5, MRC-5, normoxia, 96 h MTT
# Protocol: as §1, §2, §3, §4
# [4] = tested on: MDA-MB-231 (human breast carcinoma cell line, CA IX negative); assay: MTT cytotoxicity assay, MDA-MB-231 under anoxia or normoxia; details: for pIC50: Homo sapiens; for MDA-MB-231 Value = IC50(normoxia)/IC50(anoxia): MDA-MB-231, activity promotion under anoxia, >100 set as 100
# Protocol: as §1, §2, §3, §4, §5
# [5] = HT-29, anoxia 24 h then normoxia 72 h, MTT, read-out: IC50 HT-29 Anoxia
# [6] = HT-29, normoxia, 96 h MTT, read-out: IC50 HT-29 Normoxia
# [7] = HCT-116, anoxia 24 h then normoxia 72 h, MTT, read-out: IC50 HCT-116 Anoxia
# [8] = HCT-116, normoxia, 96 h MTT, read-out: IC50 HCT-116 Normoxia
# [9] = MDA-MB-231, anoxia 24 h then normoxia 72 h, MTT, read-out: IC50 MDA-MB-231 Anoxia
# [10] = MDA-MB-231, normoxia, 96 h MTT, read-out: IC50 MDA-MB-231 Normoxia
SMILES,HT-29 Value = IC50(normoxia)/IC50(anoxia) [1],"pIC50 [1, 5]","pIC50 [1, 6]",HCT-116 Value = IC50(normoxia)/IC50(anoxia) [2],"pIC50 [2, 7]","pIC50 [2, 8]",pIC50 [3],"pIC50 [4, 9]","pIC50 [4, 10]",MDA-MB-231 Value = IC50(normoxia)/IC50(anoxia) [4]
"Cc1cc(=O)oc2cc(OCCn3cc(CO[C@H]4O[C@@H]5O[C@@]6(C)CC[C@H]7[C@H](C)CC[C@@H]([C@H]4C)[C@@]57OO6)nn3)ccc12 [10a, 7-(2-(4-(10β-Dihydroartemisininoxy)methyl)-1H-1,2,3-triazol-1-yl)ethoxy-4-methyl-2H-chromen-2-one]",8.35,5.83,4.91,0.86,4.92,4.99,4.55,4.43,4.28,1.42
"C[C@H]1[C@@H](OCc2cn(CCOc3ccc4c(C(F)(F)F)cc(=O)oc4c3)nn2)O[C@@H]2O[C@@]3(C)CC[C@H]4[C@H](C)CC[C@@H]1[C@@]24OO3 [10b, 7-(2-(4-(10β-Dihydroartemisininoxy)methyl)-1H-1,2,3-triazol-1-yl)ethoxy-4-trifluoromethyl-2H-chromen-2-one]",4.99,5.66,4.96,0.78,5.08,5.19,4.47,4.61,4.55,1.13
"Cc1c(C)c2ccc(OCCn3cc(CO[C@H]4O[C@@H]5O[C@@]6(C)CC[C@H]7[C@H](C)CC[C@@H]([C@H]4C)[C@@]57OO6)nn3)cc2oc1=O [10c, 7-(2-(4-(10β-Dihydroartemisininoxy)methyl)-1H-1,2,3-triazol-1-yl)ethoxy-3,4-dimethyl-2H-chromen-2-one]",11.50,5.74,4.68,0.95,5.16,5.19,4.65,4.48,4.49,0.97
"Cc1c(Cl)c(=O)oc2cc(OCCn3cc(CO[C@H]4O[C@@H]5O[C@@]6(C)CC[C@H]7[C@H](C)CC[C@@H]([C@H]4C)[C@@]57OO6)nn3)ccc12 [10d, 3-Chloro-7-(2-(4-(10β-dihydroartemisininoxy)methyl)-1H-1,2,3-triazol-1-yl)ethoxy-4-methyl-2H-chromen-2-one]",–,7.30,4.75,0.79,5.28,5.38,4.29,4.53,4.21,2.10
"CCOC(=O)c1cc2ccc(OCCn3cc(CO[C@H]4O[C@@H]5O[C@@]6(C)CC[C@H]7[C@H](C)CC[C@@H]([C@H]4C)[C@@]57OO6)nn3)cc2oc1=O [10e, Ethyl 2-oxo-7-(2-(4-(10β-dihydroartemisininoxy)methyl)-1H-1,2,3-triazol-1-yl)ethoxy-2H-chromene-3-carboxylate]",3.66,5.06,4.50,1.79,4.54,4.29,4.28,4.04,< 4.00,–
"Cc1cc(=O)oc2cc(OCCCn3cc(CO[C@H]4O[C@@H]5O[C@@]6(C)CC[C@H]7[C@H](C)CC[C@@H]([C@H]4C)[C@@]57OO6)nn3)ccc12 [11a, 7-(3-(4-(10β-Dihydroartemisininoxy)methyl)-1H-1,2,3-triazol-1-yl)propoxy-4-methyl-2H-chromen-2-one]",7.17,5.91,5.06,1.36,5.22,5.09,4.81,4.75,4.29,2.87
"C[C@H]1[C@@H](OCc2cn(CCCOc3ccc4c(C(F)(F)F)cc(=O)oc4c3)nn2)O[C@@H]2O[C@@]3(C)CC[C@H]4[C@H](C)CC[C@@H]1[C@@]24OO3 [11b, 7-(3-(4-(10β-Dihydroartemisininoxy)methyl)-1H-1,2,3-triazol-1-yl)propoxy-4-trifluoromethyl-2H-chromen-2-one]",1.63,5.30,5.08,1.38,5.03,4.89,4.36,4.43,4.14,1.97
"Cc1c(C)c2ccc(OCCCn3cc(CO[C@H]4O[C@@H]5O[C@@]6(C)CC[C@H]7[C@H](C)CC[C@@H]([C@H]4C)[C@@]57OO6)nn3)cc2oc1=O [11c, 7-(3-(4-(10β-Dihydroartemisininoxy)methyl)-1H-1,2,3-triazol-1-yl)propoxy-3,4-dimethyl-2H-chromen-2-one]",0.83,4.63,4.71,1.27,4.78,4.68,4.22,4.40,4.25,1.41
"Cc1c(Cl)c(=O)oc2cc(OCCCn3cc(CO[C@H]4O[C@@H]5O[C@@]6(C)CC[C@H]7[C@H](C)CC[C@@H]([C@H]4C)[C@@]57OO6)nn3)ccc12 [11d, 3-Chloro-7-(3-(4-(10β-dihydroartemisininoxy)methyl)-1H-1,2,3-triazol-1-yl)propoxy-4-methyl-2H-chromen-2-one]",2.90,5.87,5.41,1.28,5.22,5.11,< 4.00,4.65,4.29,2.29
"CCOC(=O)c1cc2ccc(OCCCn3cc(CO[C@H]4O[C@@H]5O[C@@]6(C)CC[C@H]7[C@H](C)CC[C@@H]([C@H]4C)[C@@]57OO6)nn3)cc2oc1=O [11e, Ethyl 2-oxo-7-(3-(4-(10β-dihydroartemisininoxy)methyl)-1H-1,2,3-triazol-1-yl)propoxy-2H-chromene-3-carboxylate]",4.25,4.92,4.29,1.57,4.55,4.36,4.41,4.30,3.92,2.38
"COc1cccc2c1C(=O)c1c(O)c3c(c(O)c1C2=O)C[C@@](O)(C(=O)CO)C[C@@H]3O[C@H]1C[C@H](N)[C@H](O)[C@H](C)O1 [DOX, doxorubicin, reference compound]",1.74,7.30,7.05,0.39,6.82,7.22,6.47,6.43,6.57,0.73
